# According to patent publication US20200390755A1, “COMPOUND FOR TREATING NERVOUS SYSTEM DISEASES AND USE THEREOF” (SHAANXI MICOT TECHNOLOGY CO., LTD., priority 2018, published 2020):
# B1: BDNF: Brain-derived neurotrophic factor, positive control, purchased from Peprotech (protein, UniProt P23560 19-247, looked up)
# Neurotrophic factor BDNF …: APMKEANIRGQGGLAYPGVRTHGTLESVNGPKAGSRGLTSLADTFEHVIEELLDEDQKVRPNEENNKDADLYTSRVMLSSQVPLEPPLLFLLEEYKNYLDAANMSMRVRRHSDPARRGELSVCDSISEWVTAADKKTAVDMSGGTVTVLEKVPVSKGQLKQYFYETKCNPMGYTKEGCRGIDKRHWNSQCRTTQSYVRALTMDSKKRIGWRFIRIDTSCVCTLTIKRGR
# Assays:
# [1] = target: T1, TrkB receptor (Mus musculus, UniProt P15209); test: Western blotting of p-TrkB and t-TrkB in primary cortical neuron cells; assay type: cell-based; settings: for Relative intensity of p-TrkB/t-TrkB protein: 10 min at 37° C., Vehicle = 100, n = 3
# T1 construct: The culture continued until the primary cortical neuron cells mature; endogenous in cells; host or cells: primary cortical neurons from E18 mouse embryos (N171-82Q WT male x B6C3F1/J female)
# T1 sequence (P15209 32-821): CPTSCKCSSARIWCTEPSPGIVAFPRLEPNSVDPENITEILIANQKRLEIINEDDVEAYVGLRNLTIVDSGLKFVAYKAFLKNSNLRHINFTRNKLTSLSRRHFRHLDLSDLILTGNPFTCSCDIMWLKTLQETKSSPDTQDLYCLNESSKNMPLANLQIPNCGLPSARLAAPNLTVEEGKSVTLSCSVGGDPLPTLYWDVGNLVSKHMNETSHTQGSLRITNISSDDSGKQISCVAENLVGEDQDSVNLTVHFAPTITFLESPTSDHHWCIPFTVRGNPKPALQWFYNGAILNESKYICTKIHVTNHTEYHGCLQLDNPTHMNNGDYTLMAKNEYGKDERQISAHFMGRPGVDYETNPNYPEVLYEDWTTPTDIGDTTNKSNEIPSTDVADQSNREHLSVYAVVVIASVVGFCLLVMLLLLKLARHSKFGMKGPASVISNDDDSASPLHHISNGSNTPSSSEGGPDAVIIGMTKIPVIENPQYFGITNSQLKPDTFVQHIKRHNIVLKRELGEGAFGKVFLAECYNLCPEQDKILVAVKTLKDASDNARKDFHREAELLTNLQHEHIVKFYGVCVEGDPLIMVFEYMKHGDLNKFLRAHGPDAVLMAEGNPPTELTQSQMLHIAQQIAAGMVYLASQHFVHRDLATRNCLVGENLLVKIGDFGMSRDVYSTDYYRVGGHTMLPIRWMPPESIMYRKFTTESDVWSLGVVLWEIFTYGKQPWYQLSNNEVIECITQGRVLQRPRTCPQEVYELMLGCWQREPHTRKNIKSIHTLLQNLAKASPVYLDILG
# Method: (§1) N171-82Q WT male mice were mated with female B6C3F1/J hybrid mice. B6C3F1/J mice 18 days after pregnancy were anesthetized with isoflurane and dissected to remove embryos, which were then placed in a 10 cm Petri dish containing Leibovitz's buffer. The head of the embryo was cut off, and the brain was peeled off to obtain the whole mouse brain, which was then placed in a new 10 cm Petri dish containing Leibovitz's buffer. The neurocortex of the brain was separated and placed in a 15 mL centrifuge tube containing 3 mL Leibovitz's buffer. The centrifuge tube was centrifuged at 1000 rpm for 1 minute, and the Leibovitz's buffer was gently removed from the centrifuge tube, and then 750 μL of 0.25% trypsin-EDTA and 75 μL of 0.1% DNase (2000 U/mL) were added to digest at 37° C. for 15 min. 750 μL of DMEM medium containing 5% FBS was added to stop the digestion. The cells were mixed well, and centrifuged at 1000 rpm for 5 minutes. Trypins/DNase mixture was removed, and 750 μL of Neurobasal medium (B-27, Glutamax, P/S) was added. The cells were mixed by gently pipetting with a pipette for 30 times. The cell suspension was filtered with a 40 µm filter and transferred to another new 50 mL centrifuge tube. 10 μL of the cell suspension was added to 90 μL of DMEM (diluted 10 times), and 10 μL of the liquid mixture was placed on a hemocytometer so that the suspension filled between the cover slip and the counting plate for counting. The cells in the four large grids of the plate were counted, wherein for the cells across the line, only the cells on the left and upper side lines were counted. The following formulas were used:
# (§2) Number of cells/mL=total number of cells in the four large grids/4×10^4/mL
# (§3) Total number of cells/mL=total number of cells in the four large grids/4×10^4/mL×dilution factor.
# (§4) After counting, the cells were diluted with Neurobasal selection medium so that 1 mL of Neurobasal culture medium contained 0.5×10^6 cells.
# (§5) 200 μL of PDL solution previously heated in a 37° C. water bath was added to each well of a 6-well plate, and incubated at 37° C. overnight to allow PDL to evenly coat the well plate. The PDL solution was absorbed and the plate was washed twice with PBS. Before use, the PBS remaining on the plate was absorbed and the cover was opened to dry the plate in a super clean bench. 2 mL of cell suspension was added to each well (37° C., 5% CO2), and the cells were cultured until adherence. The culture medium was replaced and the culture continued for 3 days, and then the growth status of neurons was observed. Every other 3 days, half of the medium was removed and replaced with fresh complete medium. The culture continued until the primary cortical neuron cells mature (usually mature on the 14th day of culture).
# (§6) After the primary cortical neuron cells have matured, appropriate amount of freshly prepared culture medium was added until final volume in each well was 2 mL. The experiment included a blank control group (Vehicle), a positive control group BDNF (10 ng/mL), a control compound group (500 nM), and 6 test compound groups (500 nM). Three repeats were set for each dose. After incubating at 37° C. for 10 min, the culture solution was discarded and the cells were washed with pre-chilled PBS, and then 40 μL of pre-chilled lysate (RIPA buffer 10 mL and protease and phosphatase inhibitor 100 μL) was added to each well for lysis on ice for 30 min. After lysis, the cell was crushed by ultrasonic cell crusher, centrifuged at 14000 rpm for 20 min at 4° C. The supernatant was transferred to a new 1.5 mL centrifuge tube to extract protein. Western blotting experiments were used to detect the protein levels of (A) p-TrkB and t-TrkB; (B) p-AKT and t-AKT.
# (§7) The software Sigmaplot 13.0 was used for statistical analysis of the data, and the data of each group was expressed as mean±standard error (x±SEM). […]
# [2] = test system: Phospho-Akt S473; test: ELISA analysis of Phospho-Akt S473 in primary cortical neuron cells; assay type: cell-based, mouse; settings: 10 min at 37° C.
# Method: The primary cortical neuron cells were cultured in the same way as in Example 21, and after maturity, appropriate amount of freshly prepared culture medium was added until final volume in each well was 2 mL. The experiment included a blank control group (Vehicle), a positive control group BDNF (10 ng/mL), a control compound group (500 nM), and 6 test compound groups (500 nM). Three repeats were set for each dose. After incubating at 37° C. for 10 min, the culture solution was discarded and the cells were washed with pre-chilled PBS, and then 40 μL of pre-chilled lysate (RIPA buffer 10 mL and protease and phosphatase inhibitor 100 μL) was added to each well for lysis on ice for 30 min. After lysis, the cell was crushed by ultrasonic cell crusher, centrifuged at 14000 rpm for 20 min at 4° C. The supernatant was transferred to a new 1.5 mL centrifuge tube to extract protein. The p-Akt ELISA experiment quantitatively detected the intracellular p-Akt protein level.
# A series of p-Akt standard solutions with different concentrations were prepared, and the absorbance value was measured to make a standard curve. Phospho-Akt1 (Ser473) sandwich ELISA kit was purchased from Cell Signaling Technology (catalog number 7160). The antibody was coated in a 96-well plate at 4° C. overnight and was washed. The coated plate was blocked with 2% bovine serum albumin (BSA), and after sufficient washing, 100 μL of sample diluent (supplied in the kit) was added to each well to dilute the extracted protein. The plate was incubated overnight at 4° C. After washing 4 times with 200 μL of washing buffer (supplied in the kit), 100 μL/well of detection antibody was added and the plate was incubated at 37° C. for 1 hour. After 4 washes, 100 μL of HRP-conjugated secondary antibody (supplied in the kit) was added and the plate was incubated at 37° C. for 30 minutes. After the final wash, 100 μL of TMB substrate was added to each well and the plate was incubated at 37° C. for 10 minutes. TMB was use as a substrate to detect the signal, since TMB can be oxidized to produce a blue solution. The reaction was stopped by adding 100 μL/well stop solution, and the test result can remain stable within one hour after the stop of the reaction. The value of each well at 450 nm and 650 nm was detected using a microplate reader. The optical density (OD) was determined by subtracting the reading at 650 nm (disturbance from the solution itself) from the reading at 450 nm. According to the OD value corresponding to the standard curve, the p-Akt concentration in each well was obtained.
# the data of each group was expressed as mean standard error (x±SEM). The ratio of the detection results of each positive control group (BNDF), control compound group (the same control compound as in Example 21) and each test compound group to the blank control group was used as an indicator to compare the p-Akt test results of the positive control group, control compound group, and each test compound group. One-way ANOVA and LSD post-hoc test were used to compare the measurement data among multiple groups, and P<0.05 was considered statistically significant.
# [3] = test system: AKT signaling pathway; test: Western blotting of p-AKT and t-AKT in primary cortical neuron cells; assay type: cell-based, mouse; settings: 10 min at 37° C., Vehicle = 100, n = 3
# Method: as §1, §2, §3, §4, §5, §6, §7
# [4] = test system: rats with permanent cerebral ischemia; test: Cerebral infarction volume by TTC staining in rats with permanent cerebral ischemia; assay type: in vivo, SD rats; settings: 0.078 mg/kg intravenous, after 7 days of ischemia
# Method: (§8) SD rats, male, about 220-250 g, were provided by the Experimental Animal Center of Medical College of Xi'an Jiaotong University. Rats were randomly divided into groups of 14 animals/group. The experiment included a sham group, a model group, a positive control Edaravone group and test compound groups 1-5.12 hours before the operation, the rats were fasted and were free to drink water, and then used for the modeling method of middle cerebral artery occlusion with thread plug. The rats were fixed on a wooden board after anesthesia, the common carotid artery was ligated proximally, the external carotid artery was ligated distally, and the main internal carotid artery into skull was retained. A ligature line was reserved at the bifurcation of the internal carotid artery for temporarily clamping the distal end of the internal carotid artery using an arterial clip. A 3-0 nylon thread with a length of 5 cm and a spherical shape with a diameter of 0.3 mm at the tip was inserted into the common carotid artery through a small incision at the bifurcation. The arterial clamp was loosened, and the thread plug was slowly advanced to 18˜20 mm. When there was resistance, the progress of the thread was stopped. At this time, the nylon thread plug entered the middle artery and blocked the blood flow, and then the ischemic phase began. The skin was sutured. In the sham operation group, the same procedure was executed, except that no thread plug was inserted.
# (§9) Administering was performed at 0 h, 3 h, 6 h and 12 h after ischemia, and then administering was performed once a day for 7 consecutive days. The test compound was prepared into a 4 mg/mL solution with 1% CMC-Na solution and administered by gavage. The edaravone group received an intravenous dose of 0.078 mg/kg.
# 3) Percentage of cerebral infarction volume after 7 days of ischemia: TTC staining was used to observe the infarct area.
# The rats in each group were sacrificed by spinal dislocation […]. The brain tissue was quickly peeled off and placed in the refrigerator at −20° C. to freeze to an appropriate hardness to remove the olfactory bulb, cerebellum and low brain stem. Continuous coronary slices were performed at 1 mm intervals, to obtain a total of 5 slices. The slices were placed in 0.5% triphenyltetrazolium chloride (TTC) in phosphate buffer (pH=7.4) and incubated in a 37° C. incubator without light for 15 min, and then fixed in paraformaldehyde and observed (fixed time should be within 24 h). The normal brain tissue is rosy red, and infarcted brain tissue is pale. After taking the picture, the slice was scanned to save the image. The area of cerebral infarction and the total area of slices were calculated using Image J processing software.
# Cerebral infarction volume (%)=(volume of the contralateral hemisphere of the operation−volume of the uninfarcted portion of the hemisphere of the occlusion)/volume of the contralateral hemisphere of the operation×100%
# (§10) (2) Statistical analysis of data: SPSS18.0 statistical software was used for statistical analysis and the data of each group was expressed as the mean standard error (x±SEM). One-way ANOVA and multiple comparisons between groups were used to compare the averages of measurement data among multiple groups. Rank score test was used for behavioral grading data, and Kaplan-Meier method was used for mortality. P<0.05 was considered statistically significant.
# [5] = test system: rats with permanent cerebral ischemia; test: Neurobehavioral scoring in rats with permanent cerebral ischemia (MCAO thread plug); assay type: in vivo, SD rats; settings: 0.078 mg/kg intravenous
# Method: as §8, §9
# 2) The rats were lifted at its tail about 1 foot off the ground to observe the condition of both forelimbs. The rats were placed on a level ground and pushed on both shoulders to observe the difference in resistance on both sides. The rats were placed on the ground to observe the walking. The assessment was conducted using a five-grade four-point scoring method (0 to 4 points). The higher the score, the more severe the neurobehavioral damage.
# 0 point: the behavior is completely normal;
# 1 point: when the rat is lifted at its tail off the ground, the forelimb on the opposite side of the operation rotates and folds inwardly.
# 2 points: when the rat is placed on a level ground and pushed on both shoulders to observe the difference in resistance on both sides, the resistance on the opposite side of the operation reduces;
# 3 points: when the rat is placed on the ground to the walking, it circles around the opposite side of the operation;
# 4 points: The injury is so severe that the rat is unable to move independently.
# as §10
molecule,measurement,setting,value
"O=c1cc(-c2ccc(N3CCOCC3)cc2)oc2c(O)c(O)ccc12 [Control compound, reference compound]",Relative intensity of p-TrkB/t-TrkB protein,[1]; 500 nM,138.890 ± 15.547
same,"Relative content of p-Akt protein (ELISA, ratio to blank control group)",[2]; 500 nM,138.33±2.08%
same,Relative intensity of p-AKT/t-AKT protein,[3]; 500 nM,147.748 ± 4.832
"CC1=NN(c2ccccc2)C(=O)C1 [Edaravone, reference compound]",Volume percentage of cerebral infarction,[4],33.50 ± 7.21%
same,Neurobehavioral score (0 to 4 points),[5]; 6 h after ischemia,2 ± 0.18
same,Neurobehavioral score (0 to 4 points),[5]; 1 d after ischemia,2.36 ± 0.29
same,Neurobehavioral score (0 to 4 points),[5]; 2 d after ischemia,2.89 ± 0.31
same,Neurobehavioral score (0 to 4 points),[5]; 3 d after ischemia,2.38 ± 0.37
same,Neurobehavioral score (0 to 4 points),[5]; 4 d after ischemia,2 ± 0.33
same,Neurobehavioral score (0 to 4 points),[5]; 5 d after ischemia,2.14 ± 0.46
same,Neurobehavioral score (0 to 4 points),[5]; 6 d after ischemia,2 ± 0.31
same,Neurobehavioral score (0 to 4 points),[5]; 7 d after ischemia,1.67 ± 0.21
"[2H]c1c(-c2ccc(N3CCCCC3)cc2)oc2c(O)c(O)ccc2c1=O [Example 7, 3-deutero-7,8-dihydroxy-2-(4-(piperidin-1-yl)phenyl)-4H-chromen-4-one]",Relative intensity of p-TrkB/t-TrkB protein,[1]; 500 nM,218.156 ± 12.556
same,"Relative content of p-Akt protein (ELISA, ratio to blank control group)",[2]; 500 nM,218.33±2.31%
same,Relative intensity of p-AKT/t-AKT protein,[3]; 500 nM,220.514 ± 3.476
B1,Increase of relative intensity of p-TrkB compared with Vehicle group,[1]; BDNF 10 ng/mL,2.74 times
same,Relative intensity of p-TrkB/t-TrkB protein,[1]; BDNF 10 ng/mL,274.260 ± 8.047
same,"Relative content of p-Akt protein (ELISA, ratio to blank control group)",[2]; BDNF 10 ng/mL,231%
same,Relative intensity of p-AKT/t-AKT protein,[3]; BDNF 10 ng/mL,229.306 ± 3.912
